Test results: paper PMC12603070, “A high-throughput screening approach to discover potential colorectal cancer chemotherapeutics: repurposing drugs to identify novel disruptors of 14-3-3 proteins” (Cell Death & Disease, 2025)
Where a name gives a salt, the structure may show the parent alone. Read-outs that look alike come from different tables or passages of the source. Numbered stars: 1 amine (or outer) side, 2 acyl side, 3 side chain; on linkers, the order of the positions; unused ones are H or OH. Bridge positions count the residues as written; N and C are the ends. Square brackets hold non-standard residues; d marks the D form. Peptide text beside a SMILES is read from it. * marks the point of attachment. pTerphenylCO(4''-OnC5H11) = CCCCCOc1ccc(-c2ccc(-c3ccc(C(=O)*)cc3)cc2)cc1; Orn(4R-OH,5R-OH) = O=C([C@H](C[C@@H](O)[C@@H](O)N[*:3])N[*:1])[*:2]; hTyr(3S-OH,4S-OH) = N[C@H](C(=O)O)[C@H](O)[C@@H](O)c1ccc(O)cc1; Pro(3S-OH,4S-Me) = C[C@H]1CN[C@H](C(=O)O)[C@H]1O; Hyp = O=C(O)[C@@H]1C[C@@H](O)CN1

Columns and labels:
Caco-2 cells = type: cell-based; conditions: for Percentage of cell death % 24h CACO-2: 20 µM; for Percentage of cell death % 48h, Caco-2: 20 μM
From the text: (§1) A high-content imaging system (PerkinElmer; Operetta CLS), was used to quantify cell death and apoptosis by calculating the number of propidium iodide-positive cells relative to Hoechst-positive cells, and the number of Annexin V-positive cells relative to Hoechst-positive cells, respectively.

HT-29 cells = assay: Hoechst/propidium iodide cell death assay in HT-29; type: cell-based, human; conditions: for cytotoxicity at 20 µM: Homo sapiens; for %Cell death HT-29: time not given
From the text: as §1

[1] = molecular target: T1, 14-3-3ζ:BAD-112-136F interactions (Homo sapiens, UniProt P63104); assay: BRET sensor screen for disruption of 14-3-3ζ-Rluc8:BAD-112-136F-mCitrine in living NIH-3T3 cells; type: cell-based, murine; parameters: inhibition: dose or concentration left out as unconfirmed; BRET reduction on NIH-3T3: unit not given here; conditions: for inhibition / inhibition at 20 µM: NIH3T3, 3 h, read-out: BRET reduction on NIH-3T3
T1 construct: expressed in transfected cells; host or cells: NIH-3T3 fibroblasts, bi-directional pBI-CMV1 plasmid
T1 sequence (P63104 1-245): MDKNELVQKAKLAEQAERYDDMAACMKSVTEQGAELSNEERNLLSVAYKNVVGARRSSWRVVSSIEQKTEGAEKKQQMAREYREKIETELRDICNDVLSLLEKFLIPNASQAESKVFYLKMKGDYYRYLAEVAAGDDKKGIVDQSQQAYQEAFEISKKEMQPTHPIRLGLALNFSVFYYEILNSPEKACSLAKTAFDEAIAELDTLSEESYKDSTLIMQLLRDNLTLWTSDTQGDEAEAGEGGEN
Experimental: The Z’-score, which evaluates the robustness of an HTS assay readout, was calculated according to standard protocols. For the HTS, 384-well plates were coated with 100 μg/mL poly-L-ornithine (Sigma, Missouri, United States; #P3655) overnight at 37 °C, followed by rinsing with sterilized water. NIH-3T3 cells were transfected with the BRET sensor two days prior to experimentation, followed by replating onto the pre-coated 384-well plates at a density of 20,000 cells/well. After 24 h of incubation at 37 °C, growth media was replaced by Krebs buffer (pH 7.4).

NIH-3T3 cells = assay: Hoechst/propidium iodide cell death assay in NIH-3T3; type: cell-based; conditions: for cytotoxicity at 20 µM: Mus musculus, NIH3T3, 24 h, read-out: Percentage of cell death % 24h NIH3t3
From the text: as §1

[2] = HT-29, 24 h, 20 µM, 24 h, read-out: Percentage of cell death % 24h HT-29
[3] = HT-29, 48 h, HT-29, 48h, 20 μM, read-out: Percentage of cell death % 48h, HT-29
[4] = NIH-3T3 cells, hits from the primary screen
[5] = NIH-3T3 expressing BRET sensor, 20 µM, 3 h
[6] = HT-29, 24 h, read-out: Percentage of cell death % 24h HT-29
[7] = HT-29, 48 h, read-out: Percentage of cell death % 48h, HT-29

| Molecule | Percentage of cell death % 24h CACO-2 (Caco-2 cells) [%] | Percentage of cell death % 48h, Caco-2 (Caco-2 cells) [%] | cytotoxicity at 20 µM (HT-29 cells; [2]) [%] | cytotoxicity at 20 µM (HT-29 cells; [3]) [%] | inhibition [1, 4] [%] | inhibition at 20 µM [1, 5] [%] | cytotoxicity at 20 µM (NIH-3T3 cells; 20 µM, 24 h) [%] | Percentage of cell death % 48h, NIH3T3 (NIH-3T3 cells) [%] | cytotoxicity at 20 µM (HT-29 cells; [6]) [%] | cytotoxicity at 20 µM (HT-29 cells; [7]) [%] | inhibition at 20 µM [1] [%] | BRET reduction on NIH-3T3 [1, 4] | cytotoxicity at 20 µM (NIH-3T3 cells) [%] | %Cell death Caco-2 (Caco-2 cells; time not given, text says 48 h) [%] | %Cell death HT-29 (HT-29 cells; HT-29) [%] | %Cell death Caco-2 (Caco-2 cells) [%] | Percentage of cell death % 24h HT-29 (HT-29 cells; 20 µM, 24 h) [%] | Percentage of cell death % 48h, HT-29 (HT-29 cells; HT-29, 48h, 20 μM) [%] | BRET reduction on NIH-3T3 [1, 5] | Percentage of cell death % 24h NIH3t3 (NIH-3T3 cells; 20 µM, 24 h) [%] |
| --- | --- | --- | --- | --- | --- | --- | --- | --- | --- | --- | --- | --- | --- | --- | --- | --- | --- | --- | --- | --- |
| Cn1ncc(Cl)c1-c1cc(C(=O)N[C@H](CN)Cc2cccc(F)c2)sc1Cl [Afuresertib] | 23.3726 | 43.2801 | 3.99 | 37.5 | 27.8 | 27.8 | 57.7 | 38.6266 | – | – | – | – | – | – | – | – | – | – | – | – |
| CCCCCOc1ccc(-c2ccc(-c3ccc(C(=O)N[C@H]4C[C@@H](O)[C@@H](O)NC(=O)[C@@H]5[C@@H](O)[C@@H](C)CN5C(=O)[C@H]([C@@H](C)O)NC(=O)[C@H]([C@H](O)[C@@H](O)c5ccc(O)cc5)NC(=O)[C@@H]5C[C@@H](O)CN5C(=O)[C@H]([C@@H](C)O)NC4=O)cc3)cc2)cc1 [Anidulafungin] ({pTerphenylCO(4''-OnC5H11)}-[Orn(4R-OH,5R-OH)]T[Hyp][hTyr(3S-OH,4S-OH)]T[Pro(3S-OH,4S-Me)]; lactam 1-C) | 1.705 | 1.424 | – | – | – | – | – | 12.0742 | 4.73 | 7.05 | 27 | 27.0241 | 33.6 | – | – | – | – | – | – | – |
| CC1=C(C(=O)OC(C)C)C(c2cccc([N+](=O)[O-])c2)C(C(=O)OC2CN(C(c3ccccc3)c3ccccc3)C2)=C(N)N1 (stereo not shown) [Azelnidipine] | 9.563 | 13.6799 | 66.4 | 91.6 | 40.2 | 40.2 | 75.6 | 71.6636 | – | – | – | – | – | 13.7 | 91.6 | – | – | – | – | – |
| CCc1cc(/C(C)=N/OCc2ccc(C3CCCCC3)c(C(F)(F)F)c2)ccc1CN1CC(C(=O)O)C1 [BAF312 (Siponimod), Siponimod] | 2.6196 | 2.567 | 0.683 | 1.58 | 28.7 | 28.7 | 0.738 | 0.7911 | – | – | – | – | – | – | – | – | – | – | – | – |
| COC(=O)[C@]12CCC(C)(C)C[C@H]1[C@H]1C(=O)C=C3[C@@]4(C)C=C(C#N)C(=O)C(C)(C)[C@@H]4CC[C@@]3(C)[C@]1(C)CC2 [Bardoxolone methyl] | – | – | – | – | – | – | – | 72.1638 | – | – | – | 39.4225 | – | – | 67.5 | 19.2 | 43.1592 | 67.5309 | 39.4225 | 87.0027 |
| CCCCCCCCCCCCCCCC[N+](C)(C)C [Cetrimonium Bromide (CTAB), Cetrimonium Bromide] | 19.5542 | 50.4821 | – | – | – | – | – | 66.4515 | 11.5 | 55.4 | 35.4 | 35.3912 | 73.5 | – | – | – | – | – | – | – |
| CCCCCCCCCCCCCCCC[n+]1ccccc1 [Cetylpyridinium Chloride] | 22.2457 | 63.7687 | – | – | – | – | – | 74.7179 | 27.2 | 76.9 | – | – | 81.9 | – | – | – | – | – | – | – |
| C[C@@H](NCCCc1cccc(C(F)(F)F)c1)c1cccc2ccccc12 [Cinacalcet HCl] | 64.4357 | 76.6269 | – | – | – | – | – | 69.2945 | – | – | – | 50.3473 | – | – | – | – | 35.6614 | 79.6038 | 50.3473 | 81.0537 |
| C[C@@H](NCCCc1cccc(C(F)(F)F)c1)c1cccc2ccccc12 [Cinacalcet] | 40.5775 | 49.3803 | 30 | 70.3 | 47.7 | 47.7 | 75.5 | 90.5083 | – | – | – | – | – | 49.4 | 70.3 | – | – | – | – | – |
| CCN(CC)CCOc1ccc(C(=C(Cl)c2ccccc2)c2ccccc2)cc1 [Clomiphene citrate] | – | – | 1.46 | 52 | 38.2 | 38.2 | 10.1 | 58.221 | – | – | – | – | – | – | 52.0 | 34.7 | – | – | – | – |
| CCCCCCCCCCCC[N+](C)(C)CCOc1ccccc1 [Domiphen Bromide] | 24.2566 | 80.35 | 15 | 57.1 | 49 | 49 | 81.2 | 69.1517 | – | – | – | – | – | – | – | – | – | – | – | – |
| CO[C@H]1C[C@H](O[C@H]2[C@H](C)O[C@@H](O[C@@H]3/C(C)=C/C[C@@H]4C[C@@H](C[C@]5(C=C[C@H](C)[C@@H](C6CCCCC6)O5)O4)OC(=O)[C@@H]4C=C(C)[C@@H](O)[C@H]5OC/C(=C\C=C\[C@@H]3C)[C@]54O)C[C@@H]2OC)O[C@@H](C)[C@@H]1O [Doramectin] | – | – | – | – | – | – | – | 58.749 | – | – | – | 36.2699 | – | – | 51.6 | 32.3 | 11.0069 | 51.5756 | 36.2699 | 51.7189 |
| CCCCc1oc2ccc(NS(C)(=O)=O)cc2c1C(=O)c1ccc(OCCCN(CCCC)CCCC)cc1 [Dronedarone HCl] | 77.641 | 87.4152 | – | – | – | – | – | 84.99 | – | – | – | 49.6356 | – | – | – | – | 82.9811 | 91.5188 | 49.6356 | 85.6589 |
| Clc1ccc(CO/N=C(\Cn2ccnc2)c2ccc(Cl)cc2Cl)c(Cl)c1.O=[N+]([O-])O [Oxiconazole (nitrate)] | 8.851 | 7.056 | – | – | – | – | – | 4.864 | – | – | – | – | – | – | – | – | 3.543 | 5.935 | – | 5.3556 |
| Sodium Aescinate | – | – | – | – | – | – | – | 15.6079 | – | – | – | 53.9832 | – | – | – | – | 0.8457 | 0.6065 | 53.9832 | 50.0783 |
| Vitamin B12 | – | – | – | – | – | – | – | 0.1179 | – | – | – | 36.7374 | – | – | – | – | 0.4615 | 1.059 | 36.7374 | 0.2976 |
